Reference: patent US20140235877A1, “COMPOUNDS, METHODS OF PREPARATION AND USE THEREOF FOR TREATING CANCER” (Hong Kong Baptist University, priority 2013, published 2014)
pIC50: −log10 of the molar value. Like-named read-outs stand apart in the source and are kept apart here.

Key:
HepG2 = test: MTT cell viability assay, HepG2; type: cell-based; settings: Homo sapiens
Text: (§1) Curcumin and paclitaxel are used as the positive control.

[1] = test system: normal liver cells immortalized MIHA; test: MTT cytotoxicity assay on normal liver cells immortalized MIHA; type: cell-based, human; settings: for Survival rate (%): MTT, 72 h
Experimental: The cytotoxicity of Compound A to normal liver cells immortalized MIHA is tested with MTT assay.
For MTT assay, 10 μL MTT solution is added into each well of a 96-well plate. After 2 h incubation at 37° C., 100 μL 10% SDS solution with 10 mM HCl is added to dissolve the purple crystals. After 24 h incubation, the optical density (OD) readings at 595 nm are measured using a Perkin-Elmer Victor plate reader. The values of IC50 are determined using the method described in the cited literatures with some modifications. To determine the IC50 value of a compound in a cell line, the growth inhibitory effect of Compound A at different concentrations is measured by MTT assay. For each tested concentration, 3000 cells suspended in 100 μL culture medium are seeded in each well of a 96-well plate. The well containing 100 μL culture medium without cells is used as a blank. After an overnight culture, Compound A at the designed concentration is added. The OD values of the control group at 0 h (C0) and 72 h (C72) together with the compound treated groups at 72 h (T72) from the MTT assay are measured using the Perkin-Elmer Victor plate reader. The survival rates are calculated using the formula (T72−C0)/(C72−C0)×100%. The inhibition rates are calculated using the following formula [1−(T72−C0)/(C72−C0)]×100% and plotted against logarithmic concentrations by sigmoidal fit. IC50 is defined as the concentration of a compound inhibiting 50% of cell growth. Each IC50 test is performed in triplicate and repeated at least three times.

AGS = test: MTT cell viability assay, AGS; settings: Homo sapiens, 72 h, read-out: Cytotoxicity Data IC50 (μM)
Experimental: (§2) All test samples are dissolved in dimethyl sulfoxide (DMSO) to make stock solutions and further diluted in culture medium upon assay. Human cancer cell lines including U87, MDA-MB-231, AGS and HepG2 are cultured in RPMI 1640 or DMEM or DMEM/F12 medium, containing 10% fetal bovine serum. All cell lines are maintained at 37° C. in a humidified environment containing 5% CO2. To determine the effects of the compounds on cell viability, cell number is quantified using a standard colorimetric MTT assay. Cells are placed in a 96-well plate (5×10^3 cells/well) and allowed to attach overnight. Cells are treated with 5, 10, 20, 40 μM of each compound in culture medium for 72 h, respectively. Then, culture media are added with 20 μL of MTT (5 mg/mL stock in PBS) per well and incubated for 4 h at 37° C. Finally, culture media are discarded and 150 μL of DMSO is added to each well to dissolve the purple formazan crystals. Absorbance of the solution is measured using microplate reader spectrophotometer (Bio-Rad Laboratories, Inc., Hercules, Calif.), at a wavelength of 490 nm. Absorbance of untreated cells in medium (negative control) is 100%. Curcumin and paclitaxel are used as the positive control.

U87 = test: MTT cell viability assay, U87; settings: Homo sapiens, U-87 MG, 72 h, read-out: Cytotoxicity Data IC50 (μM)
Experimental: as §2

MDA-MB-231 = test: MTT cell viability assay, MDA-MB-231; type: cell-based; settings: Homo sapiens; MDA-MB-231, MTT, 72 h; read-out: Cytotoxicity Data IC50
Text: as §1

**Q.** Which IC50 (HepG2; HepG2, MTT, read-out: IC50 on HepG2 cells growth) does the source give for COc1c(O)c(O)c2c(=O)c3c(CC=C(C)C)c(CC=C(C)C)c(O)c(O)c3oc2c1CC=C(C)C [Compound A, 1,2,5,6-tetrahydroxy-3-methoxy-4,7,8-tri(3-methylbut-2-enyl)-xanthone] here?
**A.** 5.3 µg/mL

**Q.** What about the inhibition at 0.8 µg/mL (HepG2; HepG2, compound A 0.8 μg/mL, MTT, read-out: Inhibition rate %) of the same compound?
**A.** 7.79%

**Q.** What about the inhibition at 1.6 µg/mL (HepG2; HepG2, compound A 1.6 μg/mL, MTT, read-out: Inhibition rate %) of the same compound?
**A.** 8.16%

**Q.** What about the inhibition at 3.125 µg/mL (HepG2; HepG2, compound A 3.125 μg/mL, MTT, read-out: Inhibition rate %) of the same compound?
**A.** 15%

**Q.** What about the inhibition at 6.25 µg/mL (HepG2; HepG2, compound A 6.25 μg/mL, MTT, read-out: Inhibition rate %) of the same compound?
**A.** 59.2%

**Q.** What about the inhibition at 12.5 µg/mL (HepG2; HepG2, compound A 12.5 μg/mL, MTT, read-out: Inhibition rate %) of the same compound?
**A.** 75.6%

**Q.** And the inhibition at 25 µg/mL (HepG2; HepG2, compound A 25 μg/mL, MTT, read-out: Inhibition rate %)?
**A.** 76.6%

**Q.** What about the inhibition at 50 µg/mL (HepG2; HepG2, compound A 50 μg/mL, MTT, read-out: Inhibition rate %) of the same compound?
**A.** 69.3%

**Q.** And the inhibition at 100 µg/mL (HepG2; HepG2, compound A 100 μg/mL, MTT, read-out: Inhibition rate %)?
**A.** 74.3%

**Q.** And the “Survival rate (%)” value ([1]; compound A 5 μg/mL)?
**A.** 101.7881%

**Q.** What about the “Survival rate (%)” value ([1]; compound A 10 μg/mL) of the same compound?
**A.** 85.45%

**Q.** What about the “Survival rate (%)” value ([1]; compound A 20 μg/mL) of the same compound?
**A.** 85.89%

**Q.** What about the “Survival rate (%)” value ([1]; compound A 40 μg/mL) of the same compound?
**A.** 68.01%

**Q.** And the “half toxic concentration TC50” value ([1]; from survival rate curve (FIG. 1))?
**A.** > 40 µg/mL

**Q.** What about the “toxicity on normal cells” value ([1]; result in words) of the same compound?
**A.** low toxicity

**Q.** Which results are given for COc1c(OC)c(O)c2c(=O)c3c(CC=C(C)C)c(CC=C(C)C)c(O)c(O)c3oc2c1CC=C(C)C [Compound B]?
**A.** pIC50 (HepG2; HepG2, MTT, 72 h, read-out: Cytotoxicity Data IC50): 4.69; IC50 (AGS): 31.1 µM; IC50 (U87): 55.3 µM; pIC50 (MDA-MB-231): 4.15

**Q.** For COc1cc(/C=C/C(=O)CC(=O)/C=C/c2ccc(O)c(OC)c2)ccc1O [Curcumin], which IC50 (AGS) is on record?
**A.** 4.38 µM

**Q.** What about the IC50 (U87) of the same compound?
**A.** 20.8 µM

**Q.** And the pIC50 (MDA-MB-231)?
**A.** 5.42

**Q.** How did the IC50 (AGS) turn out when CC(=O)O[C@H]1C(=O)[C@@]2(C)[C@H]([C@H](OC(=O)c3ccccc3)[C@]3(O)C[C@H](OC(=O)[C@H](O)[C@@H](NC(=O)c4ccccc4)c4ccccc4)C(C)=C1C3(C)C)[C@]1(OC(C)=O)CO[C@@H]1C[C@@H]2O [Paclitaxel] was run?
**A.** 23.1 µM

**Q.** What about the IC50 (U87) of the same compound?
**A.** 285 µM
